From US20250092065A1, “2-(INDAZOL-5-YL)-6-(PIPERIDIN-4-YL)-1,7-NAPHTHYRIDINE DERIVATIVES AND RELATED COMPOUNDS AS MODULATORS FOR SPLICING NUCLEIC ACIDS AND FOR THE TREATMENT OF PROLIFERATIVE DISEASES” (REMIX THERAPEUTICS INC., priority 2022, published 2025)
Like-named read-outs stand apart in the source and are kept apart here.

What was measured:
HTT = assay: HiBiT protein abundance assay, HTT (K562 HiBiT knock-in); assay type: cell-based, human; details: HiBiT knock-in K562 cells, 24 hours, top dose 10 μM
In short: (§1)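 K562 HiBiT knock-in, 24 h, 37 °C, top 10 μM final, 3-fold ×10, DMSO ≤0.25%. Lytic HiBiT luminescence; PC = parental K562, NC = DMSO; 4PL IC50.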

Target C = assay: HiBiT protein abundance assay, Target C (K562 HiBiT knock-in); assay type: cell-based, human; details: HiBiT knock-in K562 cells, 24 hours, top dose 10 μM
In short: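 K562 HiBiT knock-in cells (10000/well) were treated 24 h at 37° C with a 10-point 3-fold dilution series (top 10 μM final, ≤0.25% DMSO). HiBiT luminescence was read after lytic LgBiT detection. Percent response used unmodified K562 and DMSO-treated knock-in controls, and IC50 came from a four-parameter fit at 50% of untreated.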

SMN2 mRNA = assay: RT-qPCR splicing assay, SMN2 mRNA; assay type: cell-based, human; details: Homo sapiens, canonical junction qPCR panel, Table 4; read-out: SMN2 IC50 (decrease in CJ mRNA levels)
In short: (§2)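 Both isoforms, CJ and AJ, read by qPCR from crude lysates of treated A673 or K562 cells; 24 h, 37 °C, maximum 10 uM. Normalization: housekeeper ΔCt, then DMSO ΔΔCt.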

MYB = assay: HiBiT protein abundance assay, MYB (K562 HiBiT knock-in); assay type: cell-based, human; details: HiBiT knock-in K562 cells, 24 hours, top dose 10 μM
In short: as §1

MYB mRNA = assay: RT-qPCR splicing assay, MYB mRNA canonical (CJ) and alternative (AJ) junction; assay type: cell-based, human; details: Homo sapiens; for AC50: MYB alternative junction mRNA, read-out: MYB AJ (increase in AJ mRNA, AC50)
In short: as §2

HTT mRNA = assay: RT-qPCR splicing assay, HTT mRNA canonical (CJ) and alternative (AJ) junction; assay type: cell-based, human; details: Homo sapiens; for AC50: HTT alternative junction mRNA, read-out: HTT AJ (increase in AJ mRNA, AC50)
In short: as §2

K562 cells = assay: Cell Titer Glo 2.0 cell viability (toxicity) assay, K562; details: 500 cells/well, 72 hours
[1] = MYB canonical junction mRNA, RT-qPCR, read-out: MYB CJ (decrease in CJ mRNA levels, IC50)
[2] = canonical junction qPCR panel, Table 4, read-out: MYB IC50 (decrease in CJ mRNA levels)
[3] = HTT canonical junction mRNA, RT-qPCR, read-out: HTT CJ (decrease in CJ mRNA levels, IC50)
[4] = canonical junction qPCR panel, Table 4, read-out: HTT IC50 (decrease in CJ mRNA levels)

Row | SMILES | IC50 (HTT) | IC50 (Target C) | IC50 (SMN2 mRNA) | IC50 (MYB) | AC50 (MYB mRNA; RT-qPCR) | IC50 (MYB mRNA; [1]) | IC50 (MYB mRNA; [2]) | AC50 (HTT mRNA; RT-qPCR) | IC50 (HTT mRNA; [3]) | IC50 (HTT mRNA; [4]) | Effect of Exemplary Compounds on Cell Viability, K562 (K562 cells)
1 | Cc1cc(=O)c2cc(O)c(-c3ccc4nc(N5CCC(NC(C)(C)C)C5)ccc4n3)cc2o1 (centres unmarked) [Compound 174] | > 10000 nM | > 10000 nM | > 10000 nM | > 10000 nM | > 10000 nM | > 10000 nM | > 10000 nM | > 10000 nM | > 10000 nM | > 10000 nM | A (A represents <100 nM)
2 | Cc1nc2cc(O)c(-c3ccc4nc(N5CCC(NC(C)(C)C)C5)ccc4n3)cc2o1 (centres unmarked) [Compound 175] | < 100 nM | < 100 nM | < 100 nM | < 100 nM | < 100 nM | < 100 nM | < 100 nM | < 100 nM | < 100 nM | < 100 nM | B (B represents 100-1000 nM)
3 | COc1cc2nc(C)sc2cc1-c1ccc2nc(N3CCC(NC(C)(C)C)C3)ccc2n1 (centres unmarked) [Compound 176] | 1000 to 10000 nM | 1000 to 10000 nM | 1000 to 10000 nM | 1000 to 10000 nM | 1000 to 10000 nM | 1000 to 10000 nM | 1000 to 10000 nM | 1000 to 10000 nM | 1000 to 10000 nM | 1000 to 10000 nM | C (C represents 1000-9999 nM)
4 | COc1cc2nc(C)oc2cc1-c1ccc2nc(N3CCC(NC(C)(C)C)C3)ccc2n1 (centres unmarked) [Compound 177] | 1000 to 10000 nM | 1000 to 10000 nM | 1000 to 10000 nM | 1000 to 10000 nM | 1000 to 10000 nM | 1000 to 10000 nM | 1000 to 10000 nM | 1000 to 10000 nM | 1000 to 10000 nM | 1000 to 10000 nM | C (C represents 1000-9999 nM)
5 | Cn1cc2cc(-c3ccc4nc(N5CCC6(CCN6)C5)ccc4n3)c(O)cc2n1 (centres unmarked) [Compound 178] | 100 to 1000 nM | 100 to 1000 nM | < 100 nM | 100 to 1000 nM | 100 to 1000 nM | 100 to 1000 nM | 100 to 1000 nM | 100 to 1000 nM | 100 to 1000 nM | 100 to 1000 nM | B (B represents 100-1000 nM)
6 | CCN[C@H]1CCN(c2ccc3nc(-c4cc5cn(C)nc5cc4O)ccc3n2)C1 [Compound 179] | < 100 nM | 100 to 1000 nM | < 100 nM | 100 to 1000 nM | < 100 nM | 100 to 1000 nM | 100 to 1000 nM | < 100 nM | < 100 nM | < 100 nM | B (B represents 100-1000 nM)
7 | CCN[C@@H]1CCN(c2ccc3nc(-c4cc5cn(C)nc5cc4O)ccc3n2)C1 [Compound 180] | < 100 nM | 100 to 1000 nM | < 100 nM | < 100 nM | < 100 nM | < 100 nM | < 100 nM | 100 to 1000 nM | < 100 nM | < 100 nM | A (A represents <100 nM)
8 | Cn1cc2cc(-c3ccc4nc(N5CC[C@H](NCC(F)(F)F)C5)ccc4n3)c(O)cc2n1 [Compound 182] | > 10000 nM | > 10000 nM | 1000 to 10000 nM | > 10000 nM | > 10000 nM | 1000 to 10000 nM | 1000 to 10000 nM | > 10000 nM | 1000 to 10000 nM | 1000 to 10000 nM | D (D represents greater than 10 μM in K562 cells)
9 | Cn1cc2cc(-c3ccc4nc(C5CCNCC5)ccc4n3)ccc2n1 [Compound 184] | 100 to 1000 nM | 100 to 1000 nM | < 100 nM | 100 to 1000 nM | 100 to 1000 nM | 100 to 1000 nM | 100 to 1000 nM | 100 to 1000 nM | 100 to 1000 nM | 100 to 1000 nM | B (B represents 100-1000 nM)
10 | Cn1cc2cc(-c3ccc4nc(C5CCNCC5)ccc4n3)cc(F)c2n1 [Compound 185] | 1000 to 10000 nM | > 10000 nM | 100 to 1000 nM | 1000 to 10000 nM | 1000 to 10000 nM | 1000 to 10000 nM | 1000 to 10000 nM | 1000 to 10000 nM | 1000 to 10000 nM | 1000 to 10000 nM | C (C represents 1000-9999 nM)
11 | Cc1cn2nc(-c3ccc4nc(N5CCC(NC(C)(C)C)C5)ccc4n3)cc2c(C)n1 (centres unmarked) [Compound 187] | < 100 nM | < 100 nM | < 100 nM | 100 to 1000 nM | < 100 nM | 100 to 1000 nM | 100 to 1000 nM | < 100 nM | < 100 nM | < 100 nM | B (B represents 100-1000 nM)
12 | Cn1cc2cc(-c3ccc4nc(N5CC[C@@H](NC6COC6)C5)ccc4n3)c(O)cc2n1 [Compound 188] | 100 to 1000 nM | 1000 to 10000 nM | < 100 nM | 1000 to 10000 nM | 100 to 1000 nM | 100 to 1000 nM | 100 to 1000 nM | 100 to 1000 nM | 100 to 1000 nM | 100 to 1000 nM | C (C represents 1000-9999 nM)
13 | Cn1cc2cc(-c3ccc4nc(N5CC[C@H](NC6COC6)C5)ccc4n3)c(O)cc2n1 [Compound 189] | 1000 to 10000 nM | 1000 to 10000 nM | < 100 nM | 1000 to 10000 nM | 100 to 1000 nM | 100 to 1000 nM | 100 to 1000 nM | 100 to 1000 nM | 1000 to 10000 nM | 1000 to 10000 nM | D (D represents greater than 10 μM in K562 cells)
